Results: patent US10919916B2, “Boron-containing small molecules” (Bill & Melinda Gates Foundation, priority 2016, dated 2021)
≈ marks a conversion by molar mass, not a printed value. Like-named read-outs stand apart in the source and are kept apart here.

What was measured:
[1] = tested on: Staphylococcus aureus, MRSA (ATCC 33591); assay: Antibacterial MIC assay (microbroth dilution, CLSI); type: cell-based; conditions: read-out: MIC Staphylococcus aureus, MRSA (ATCC 33591)
Description: (§1) All MIC testing of bacteria followed the Clinical and Laboratory Standards Institute (CLSI) guidelines for antimicrobial testing of aerobic bacteria (Methods for Dilution Antimicrobial Susceptibility Tests for Bacteria that Grow Aerobically; Approved Standard—Tenth Edition, M07-A10; Performance Standards for Antimicrobial Susceptibility Testing; Twenty-fifth Informational Supplement, M100-S25).
(§2) Briefly, the microbroth dilution MIC method was used to quantitatively measure the in vitro antibacterial activity of a compound against a given bacterial isolate. The following bacterial strains were evaluated: Staphylococcus aureus, MRSA (ATCC 33591) and Streptococcus pneumoniae (ATCC 49619). Bacteria were grown in cation-adjusted Mueller-Hinton broth, with additions as required per species growth requirements (e.g. 3% lysed horse blood for fastidious organisms such as S. pneumoniae). A direct colony suspension in saline was prepared from colonies on an overnight agar plate to achieve a turbidity equivalent to 0.5 McFarland standard, which was subsequently diluted into the assay plate to achieve 5×10^5 CFU/mL. Assays plates were prepared by 2-fold dilution of compound across the plate and included a positive growth control.

[2] = tested on: Streptococcus pneumoniae (ATCC 49619); assay: as above; type: cell-based
Description: as §1
as §2, with “The following bacterial strains were evaluated: Staphylococcus aureus, MRSA (ATCC 33591) and Streptococcus pneumoniae (ATCC 49619).” left out

[3] = ATCC49619, read-out: MIC Streptococcus pneumoniae (ATCC 49619)
[4] = microbroth dilution, cation-adjusted Mueller-Hinton broth, 35° C. for 16-20 hours
[5] = ATCC49619, microbroth dilution, 3% lysed horse blood, 35° C. for 16-20 hours, read-out: MIC Streptococcus pneumoniae (ATCC 49619)

Molecule C=C[C@]1(C)C[C@@H](OC(=O)CNc2ccc3c(c2)B(O)OC3(C)C)[C@]2(C)[C@H](C)CC[C@]3(CCC(=O)[C@H]32)[C@@H](C)[C@@H]1O [Compound 51, (3aR,4R,5R,7S,8S,9R,9aS,12R)-8-hydroxy-4,7,9,12-tetramethyl-3-oxo-7-vinyldecahydro-4,9a-propanocyclopenta[8]annulen-5-yl (1-hydroxy-3,3-dimethyl-1,3-dihydrobenzo[c][1,2]oxaborol-6-yl)glycinate] has an MIC [1] of under 0.25 µg/mL and an MIC [2, 3] of 0.5 to 2 µg/mL (≈ 0.93 to 3.72 µM).
For C=C[C@]1(C)C[C@@H](OC(=O)COc2c(F)cc3c(c2F)B(O)OC3)[C@]2(C)[C@H](C)CC[C@]3(CCC(=O)[C@H]32)[C@@H](C)[C@@H]1O [Compound 5, (3aR,4R,5R,7S,8S,9R,9aS,12R)-8-hydroxy-4,7,9,12-tetramethyl-3-oxo-7-vinyldecahydro-4,9a-propanocyclopenta[8]annulen-5-yl 2-((5,7-difluoro-1-hydroxy-1,3-dihydrobenzo[c][1,2]oxaborol-6-yl)oxy)acetate], the MIC [1] was under 0.25 µg/mL and the MIC [2, 3] was under 0.25 µg/mL.
C=C[C@]1(C)C[C@@H](OC(=O)COc2ccc3c(c2F)B(O)N(C(=O)OC)N=C3)[C@]2(C)[C@H](C)CC[C@]3(CCC(=O)[C@H]32)[C@@H](C)[C@@H]1O [Compound 93, Methyl 8-fluoro-1-hydroxy-7-(2-(((3aR,4R,5R,7S,8S,9R,9aS,12R)-8-hydroxy-4,7,9,12-tetramethyl-3-oxo-7-vinyldecahydro-4,9a-propanocyclopenta[8]annulen-5-yl)oxy)-2-oxoethoxy)benzo[d][1,2,3]diazaborinine-2(1H)-carboxylate] showed an MIC [1] of under 0.25 µg/mL and an MIC [2, 3] of 0.5 to 2 µg/mL (≈ 0.835 to 3.34 µM).
With C=C[C@]1(C)C[C@@H](OC(=O)COc2ccc3c(c2)B(O)ON=C3)[C@]2(C)[C@H](C)CC[C@]3(CCC(=O)[C@H]32)[C@@H](C)[C@@H]1O [Compound 96, (3aR,4R,5R,7S,8S,9R,9aS,12R)-8-hydroxy-4,7,9,12-tetramethyl-3-oxo-7-vinyldecahydro-4,9a-propanocyclopenta[8]annulen-5-yl 2-((1-hydroxy-1H-benzo[d][1,2,6]oxazaborinin-7-yl)oxy)acetate] the MIC [1] was under 0.25 µg/mL and the MIC [2, 3] was 0.5 to 2 µg/mL (≈ 0.955 to 3.82 µM).
With C=C[C@]1(C)C[C@@H](OC(=O)COc2ccc3c(c2)COB3O)[C@]2(C)[C@H](C)CC[C@]3(CCC(=O)[C@H]32)[C@@H](C)[C@@H]1O [Compound 32, (3aR,4R,5R,7S,8S,9R,9aS,12R)-8-hydroxy-4,7,9,12-tetramethyl-3-oxo-7-vinyldecahydro-4,9a-propanocyclopenta[8]annulen-5-yl 2-((1-hydroxy-1,3-dihydrobenzo[c][1,2]oxaborol-5-yl)oxy)acetate] the MIC [1] was under 0.25 µg/mL and the MIC [2, 3] was 0.5 to 2 µg/mL (≈ 0.98 to 3.92 µM).
With C=C[C@]1(C)C[C@@H](OC(=O)CS(=O)(=O)c2ccc3c(c2)B(O)OC3)[C@]2(C)[C@H](C)CC[C@]3(CCC(=O)[C@H]32)[C@@H](C)[C@@H]1O [Compound 64, (3aR,4R,5R,7S,8S,9R,9aS,12R)-8-hydroxy-4,7,9,12-tetramethyl-3-oxo-7-vinyldecahydro-4,9a-propanocyclopenta[8]annulen-5-yl 2-((1-hydroxy-1,3-dihydrobenzo[c][1,2]oxaborol-6-yl)sulfonyl)acetate] the MIC [1] was under 0.25 µg/mL and the MIC [2, 3] was 0.5 to 2 µg/mL (≈ 0.895 to 3.58 µM).
C=C[C@]1(C)C[C@@H](OC(=O)CNCc2ccc3c(c2)B(O)OC3)[C@]2(C)[C@H](C)CC[C@]3(CCC(=O)[C@H]32)[C@@H](C)[C@@H]1O [Compound 59, (3aR,4R,5R,7S,8S,9R,9aS,12R)-8-hydroxy-4,7,9,12-tetramethyl-3-oxo-7-vinyldecahydro-4,9a-propanocyclopenta[8]annulen-5-yl ((1-hydroxy-1,3-dihydrobenzo[c][1,2]oxaborol-6-yl)methyl)glycinate] showed an MIC [1] of 0.5 to 2 µg/mL (≈ 0.955 to 3.82 µM) and an MIC [2, 3] of 4 to 32 µg/mL (≈ 7.64 to 61.1 µM).
In the case of C=C[C@]1(C)C[C@@H](OC(=O)Nc2ccc3c(c2)B(O)OC3)[C@]2(C)[C@H](C)CC[C@]3(CCC(=O)[C@H]32)[C@@H](C)C1=O [Compound 43, (3aR,4R,5R,7S,9R,9aS,12R)-4,7,9,12-tetramethyl-3,8-dioxo-7-vinyldecahydro-4,9a-propanocyclopenta[8]annulen-5-yl (1-hydroxy-1,3-dihydrobenzo[c][1,2]oxaborol-6-yl)carbamate], the MIC [1, 4] is reported as 0.5 to 2 µg/mL (≈ 1.01 to 4.05 µM) and the MIC [2, 5] is reported as 0.5 to 2 µg/mL (≈ 1.01 to 4.05 µM).
C=C[C@]1(C)C[C@@H](OC(=O)COc2ccc3c(c2)B(O)OCC3)[C@]2(C)[C@H](C)CC[C@]3(CCC(=O)[C@H]32)[C@@H](C)[C@@H]1O [Compound 69, (3aR,4R,5R,7S,8S,9R,9aS,12R)-8-hydroxy-4,7,9,12-tetramethyl-3-oxo-7-vinyldecahydro-4,9a-propanocyclopenta[8]annulen-5-yl 2-((1-hydroxy-3,4-dihydro-1H-benzo[c][1,2]oxaborinin-7-yl)oxy)acetate] was tested, and the MIC [1, 4] was under 0.25 µg/mL and the MIC [2, 5] was under 0.25 µg/mL.
Work on C=C[C@]1(C)C[C@@H](OC(=O)CNc2ccc3c(c2)B(O)OC3CN)[C@]2(C)[C@H](C)CC[C@]3(CCC(=O)[C@H]32)[C@@H](C)[C@@H]1O (stereo partly drawn) [Compound 52, (3aR,4R,5R,7S,8S,9R,9aS,12R)-8-hydroxy-4,7,9,12-tetramethyl-3-oxo-7-vinyldecahydro-4,9a-propanocyclopenta[8]annulen-5-yl (3-(aminomethyl)-1-hydroxy-1,3-dihydrobenzo[c][1,2]oxaborol-6-yl)glycinate] yielded an MIC [1] of 0.5 to 2 µg/mL (≈ 0.929 to 3.71 µM) and an MIC [2, 3] of 0.5 to 2 µg/mL (≈ 0.929 to 3.71 µM).
C=C[C@]1(C)C[C@@H](OC(=O)CSc2ccc3c(c2F)B(O)OC3)[C@]2(C)[C@H](C)CC[C@]3(CCC(=O)[C@H]32)[C@@H](C)[C@@H]1O [Compound 65, (3aR,4R,5R,7S,8S,9R,9aS,12R)-8-hydroxy-4,7,9,12-tetramethyl-3-oxo-7-vinyldecahydro-4,9a-propanocyclopenta[8]annulen-5-yl 2-((7-fluoro-1-hydroxy-1,3-dihydrobenzo[c][1,2]oxaborol-6-yl)thio)acetate] gave an MIC [1] of under 0.25 µg/mL and an MIC [2, 3] of 0.5 to 2 µg/mL (≈ 0.918 to 3.67 µM).
Molecule C=C[C@]1(C)C[C@@H](OC(=O)COc2ccc3c(c2OC)B(O)OC3)[C@]2(C)[C@H](C)CC[C@]3(CCC(=O)[C@H]32)[C@@H](C)[C@@H]1O [Compound 14, (3aR,4R,5R,7S,8S,9R,9aS,12R)-8-hydroxy-4,7,9,12-tetramethyl-3-oxo-7-vinyldecahydro-4,9a-propanocyclopenta[8]annulen-5-yl2-((1-hydroxy-7-methoxy-1,3-dihydrobenzo[c][1,2]oxaborol-6-yl)oxy)acetate] has an MIC [1] of under 0.25 µg/mL and an MIC [2, 3] of 0.5 to 2 µg/mL (≈ 0.925 to 3.7 µM).
Molecule C=C[C@]1(C)C[C@@H](OC(=O)CNc2cc3c(cc2F)COB3O)[C@]2(C)[C@H](C)CC[C@]3(CCC(=O)[C@H]32)[C@@H](C)[C@@H]1O [Compound 46, (3aR,4R,5R,7S,8S,9R,9aS,12R)-8-hydroxy-4,7,9,12-tetramethyl-3-oxo-7-vinyldecahydro-4,9a-propanocyclopenta[8]annulen-5-yl (5-fluoro-1-hydroxy-1,3-dihydrobenzo[c][1,2]oxaborol-6-yl)glycinate] has an MIC [1] of under 0.25 µg/mL and an MIC [2, 3] of 0.5 to 2 µg/mL (≈ 0.948 to 3.79 µM).
C=C[C@]1(C)C[C@@H](OC(=O)COc2ccc3c(c2C)B(O)OC3)[C@]2(C)[C@H](C)CC[C@]3(CCC(=O)[C@H]32)[C@@H](C)[C@@H]1O [Compound 9, (3aR,4R,5R,7S,8S,9R,9aS,12R)-8-hydroxy-4,7,9,12-tetramethyl-3-oxo-7-vinyldecahydro-4,9a-propanocyclopenta[8]annulen-5-yl2-((1-hydroxy-7-methyl-1,3-dihydrobenzo[c][1,2]oxaborol-6-yl)oxy)acetate] showed an MIC [1] of under 0.25 µg/mL and an MIC [2, 3] of 0.5 to 2 µg/mL (≈ 0.953 to 3.81 µM).
In the case of C=C[C@]1(C)C[C@@H](OC(=O)COc2ccc3c(c2C#N)B(O)OC3)[C@]2(C)[C@H](C)CC[C@]3(CCC(=O)[C@H]32)[C@@H](C)[C@@H]1O [Compound 16, (3aR,4R,5R,7S,8S,9R,9aS,12R)-8-hydroxy-4,7,9,12-tetramethyl-3-oxo-7-vinyldecahydro-4,9a-propanocyclopenta[8]annulen-5-yl 2-((7-cyano-1-hydroxy-1,3-dihydrobenzo[c][1,2]oxaborol-6-yl)oxy)acetate], the MIC [1, 4] is reported as under 0.25 µg/mL.
C=C[C@]1(C)C[C@@H](OC(=O)COc2cc(CN)c3c(c2)B(O)OC3)[C@]2(C)[C@H](C)CC[C@]3(C[C@H](O)C(=O)[C@H]32)[C@@H](C)[C@@H]1O [Compound 42, (2S,3aR,4R,5R,7S,8S,9R,9aS,12R)-2,8-dihydroxy-4,7,9,12-tetramethyl-3-oxo-7-vinyldecahydro-4,9a-propanocyclopenta[8]annulen-5-yl 2-((4-(aminomethyl)-1-hydroxy-1,3-dihydrobenzo[c][1,2]oxaborol-6-yl)oxy)acetate] was tested, and the MIC [1, 4] was 4 to 32 µg/mL (≈ 7.2 to 57.6 µM).
